In one test the test system is CD4+ CCR4+ T cells. Nature of the test: Chemokine stimulated increases in cellular F-actin content. Format: cell-based. The note with it: Homo sapiens, T-cell, 0.5 h; PBMC from normal volunteers; antagonist 30 min at 37° C. before agonist for 15 sec; F-actin content by flow cytometry; read-out: pA2 (converted). Summed up: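 Human PBMC from citrated volunteer blood, stained for CD4 and CCR4, were pre-incubated with antagonist or vehicle (0.1% DMSO) for 30 min at 37 °C, then stimulated with agonist for 15 s and formaldehyde-fixed. F-actin was stained with phalloidin and read by flow cytometry as CD4+CCR4+ MFI relative to CD4+CCR4− cells.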
(A flow cytometer gives signals particle by particle.)

The target in a further test is T1, CCR4 (Homo sapiens, UniProt P51679).
T1 construct: expressed in transfected cells; host or cells: CHO cell membranes
T1 sequence (P51679 1-360): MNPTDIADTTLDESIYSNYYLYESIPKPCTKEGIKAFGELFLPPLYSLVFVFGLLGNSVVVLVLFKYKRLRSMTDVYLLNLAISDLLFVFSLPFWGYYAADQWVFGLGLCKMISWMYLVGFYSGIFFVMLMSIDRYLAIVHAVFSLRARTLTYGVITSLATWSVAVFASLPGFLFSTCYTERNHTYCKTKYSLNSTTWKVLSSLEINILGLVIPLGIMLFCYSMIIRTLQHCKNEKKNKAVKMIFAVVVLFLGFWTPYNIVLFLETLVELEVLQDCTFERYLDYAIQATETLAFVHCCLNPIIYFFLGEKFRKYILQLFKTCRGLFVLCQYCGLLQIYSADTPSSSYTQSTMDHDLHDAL
Nature of the test: [35S]-GTPγS SPA binding assay for CCR4 antagonist activity. Type of test: biochemical. The note with it: CCR4 expressing CHO membranes; human MDC at EC80; [35S]-GTPγS competition. In general terms: Binding of GTPγS marks nucleotide exchange on a G protein.

Structures can show the parent of a compound that is named as a salt. Some results are limits rather than exact numbers.

By IC50 is commonly meant the midpoint of a concentration-inhibition curve. With `CN[C@H](C)C(=O)NCc1cccc(Cn2nc(NS(=O)(=O)c3ccc(Cl)s3)c3c(O)cccc32)c1` [Example 71, N^1-({3-[(3-{[(5-Chloro-2-thienyl)sulfonyl]amino}-4-hydroxy-1H-indazol-1-yl)methyl]phenyl}methyl)-N^2-methyl-D-alaninamide formic acid salt], the Kb in the test on CD4+ CCR4+ T cells was at most 126 nM. Besides, the IC50 on CCR4 is 3.98 to 15.8 nM.

Consider `CC(=O)NCc1cccc(Cn2nc(NS(=O)(=O)c3ccc(Cl)s3)c3c(O)cccc32)c1` [Example 72, N-({3-[(3-{[(5-Chloro-2-thienyl)sulfonyl]amino}-4-hydroxy-1H-indazol-1-yl)methyl]phenyl}methyl)acetamide], for which the Kb with CD4+ CCR4+ T cells is at most 126 nM. On CCR4, this compound gave a concentration for half-maximal inhibition (IC50) of 3.98 to 15.8 nM.

Take `O=C(NCc1cccc(Cn2nc(NS(=O)(=O)c3ccc(Cl)s3)c3c(O)cccc32)c1)C1COCCN1` (stereo not drawn) [Example 73, N-({3-[(3-{[(5-Chloro-2-thienyl)sulfonyl]amino}-4-hydroxy-1H-indazol-1-yl)methyl]phenyl}methyl)-3-morpholinecarboxamide formate salt]: the Kb with CD4+ CCR4+ T cells was at most 126 nM. This compound showed an IC50 at CCR4 of 3.98 to 15.8 nM.

Source of the values: patent US8304446B2, “Compounds” (Glaxo Group Limited, priority 2009, dated 2012).
